ChEMBL document CHEMBL1145498, “A systematic interaction map of validated kinase inhibitors with Ser/Thr kinases” (Proc Natl Acad Sci U S A, 2007)
pIC50, pKi: −log10 of the molar value.

What was measured:
[1] = target: Calcium/calmodulin-dependent protein kinase type 1G (Homo sapiens) (UniProt Q96NX5)
[2] = target: Serine/threonine-protein kinase 10 (Homo sapiens) (UniProt O94804)
[3] = target: Casein kinase I isoform gamma-1 (Homo sapiens) (UniProt Q9HCP0)
[4] = target: TRAF2 and NCK-interacting protein kinase (Homo sapiens) (UniProt Q9UKE5)
Sequence of TRAF2 and NCK-interacting protein kinase (Homo sapiens) (Q9UKE5 whole entry, looked up): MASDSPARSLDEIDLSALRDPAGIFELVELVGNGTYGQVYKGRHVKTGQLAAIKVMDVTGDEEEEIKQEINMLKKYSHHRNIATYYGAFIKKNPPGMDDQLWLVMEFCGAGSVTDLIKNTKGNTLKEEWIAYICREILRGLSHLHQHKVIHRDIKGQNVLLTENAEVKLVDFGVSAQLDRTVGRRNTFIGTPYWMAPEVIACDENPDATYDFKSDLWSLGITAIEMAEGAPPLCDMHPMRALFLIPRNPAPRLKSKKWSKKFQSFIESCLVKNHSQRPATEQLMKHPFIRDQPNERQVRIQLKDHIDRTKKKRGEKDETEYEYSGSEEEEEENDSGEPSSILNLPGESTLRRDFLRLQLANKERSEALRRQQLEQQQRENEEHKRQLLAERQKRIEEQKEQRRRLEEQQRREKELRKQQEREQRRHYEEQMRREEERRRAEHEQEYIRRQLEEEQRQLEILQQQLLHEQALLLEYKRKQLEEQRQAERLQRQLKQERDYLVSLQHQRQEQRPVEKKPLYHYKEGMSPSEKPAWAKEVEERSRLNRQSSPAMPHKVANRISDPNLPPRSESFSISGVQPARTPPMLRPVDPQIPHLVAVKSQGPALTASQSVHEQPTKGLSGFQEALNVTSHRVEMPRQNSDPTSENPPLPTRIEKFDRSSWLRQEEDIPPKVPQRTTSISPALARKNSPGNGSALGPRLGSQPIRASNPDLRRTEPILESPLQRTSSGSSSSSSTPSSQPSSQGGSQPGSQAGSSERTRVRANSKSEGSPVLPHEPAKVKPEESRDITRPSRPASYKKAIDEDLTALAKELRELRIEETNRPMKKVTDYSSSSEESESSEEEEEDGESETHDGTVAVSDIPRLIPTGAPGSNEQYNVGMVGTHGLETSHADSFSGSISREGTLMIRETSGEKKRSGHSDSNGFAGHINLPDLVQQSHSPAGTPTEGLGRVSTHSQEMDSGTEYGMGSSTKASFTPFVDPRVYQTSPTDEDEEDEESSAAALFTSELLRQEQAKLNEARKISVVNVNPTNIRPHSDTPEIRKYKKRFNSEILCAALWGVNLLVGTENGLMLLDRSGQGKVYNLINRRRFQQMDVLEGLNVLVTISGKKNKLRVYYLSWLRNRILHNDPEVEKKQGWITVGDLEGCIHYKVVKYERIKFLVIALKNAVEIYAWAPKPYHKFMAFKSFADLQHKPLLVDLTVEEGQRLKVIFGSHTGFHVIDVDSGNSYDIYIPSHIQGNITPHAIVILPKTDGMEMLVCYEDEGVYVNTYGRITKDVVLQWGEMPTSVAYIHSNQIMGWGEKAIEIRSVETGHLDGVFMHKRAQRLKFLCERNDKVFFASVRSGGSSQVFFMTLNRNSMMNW

[5] = target: Dual specificity protein kinase CLK3 (Homo sapiens) (UniProt P49761)
Sequence of Dual specificity protein kinase CLK3 (Homo sapiens) (P49761 whole entry, looked up): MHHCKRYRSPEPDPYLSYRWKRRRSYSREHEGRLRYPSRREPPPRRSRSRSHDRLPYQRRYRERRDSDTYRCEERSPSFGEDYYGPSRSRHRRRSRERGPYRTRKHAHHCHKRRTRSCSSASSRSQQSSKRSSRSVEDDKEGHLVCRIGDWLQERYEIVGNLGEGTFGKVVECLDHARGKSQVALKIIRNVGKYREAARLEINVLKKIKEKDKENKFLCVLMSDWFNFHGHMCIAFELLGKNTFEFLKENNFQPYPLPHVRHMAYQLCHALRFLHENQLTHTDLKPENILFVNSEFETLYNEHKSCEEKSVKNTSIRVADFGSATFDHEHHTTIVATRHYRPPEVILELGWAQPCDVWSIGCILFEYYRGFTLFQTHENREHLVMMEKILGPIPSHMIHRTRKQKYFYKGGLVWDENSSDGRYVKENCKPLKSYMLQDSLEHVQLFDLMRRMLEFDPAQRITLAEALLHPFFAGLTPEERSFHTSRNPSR

[6] = target: T1, Serine/threonine-protein kinase 4 (Homo sapiens) (UniProt Q13043)
T1 sequence (whole entry): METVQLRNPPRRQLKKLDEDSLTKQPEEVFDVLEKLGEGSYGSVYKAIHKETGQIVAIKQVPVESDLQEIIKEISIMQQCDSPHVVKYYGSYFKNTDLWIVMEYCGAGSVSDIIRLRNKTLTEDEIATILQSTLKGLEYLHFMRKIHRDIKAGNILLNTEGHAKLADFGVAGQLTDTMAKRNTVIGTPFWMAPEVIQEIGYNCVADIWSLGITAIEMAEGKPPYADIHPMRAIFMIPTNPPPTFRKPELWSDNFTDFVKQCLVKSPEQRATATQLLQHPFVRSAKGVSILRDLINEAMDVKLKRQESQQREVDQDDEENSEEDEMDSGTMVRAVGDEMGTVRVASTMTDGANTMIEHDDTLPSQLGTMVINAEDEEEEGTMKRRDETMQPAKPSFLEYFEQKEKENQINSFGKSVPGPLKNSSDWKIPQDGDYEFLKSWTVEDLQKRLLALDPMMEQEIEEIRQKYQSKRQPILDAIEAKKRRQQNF

[7] = target: Calcium/calmodulin-dependent protein kinase kinase 2 (Homo sapiens, UniProt Q96RR4)
Sequence of Calcium/calmodulin-dependent protein kinase kinase 2 (Q96RR4 2-588 limits assumed): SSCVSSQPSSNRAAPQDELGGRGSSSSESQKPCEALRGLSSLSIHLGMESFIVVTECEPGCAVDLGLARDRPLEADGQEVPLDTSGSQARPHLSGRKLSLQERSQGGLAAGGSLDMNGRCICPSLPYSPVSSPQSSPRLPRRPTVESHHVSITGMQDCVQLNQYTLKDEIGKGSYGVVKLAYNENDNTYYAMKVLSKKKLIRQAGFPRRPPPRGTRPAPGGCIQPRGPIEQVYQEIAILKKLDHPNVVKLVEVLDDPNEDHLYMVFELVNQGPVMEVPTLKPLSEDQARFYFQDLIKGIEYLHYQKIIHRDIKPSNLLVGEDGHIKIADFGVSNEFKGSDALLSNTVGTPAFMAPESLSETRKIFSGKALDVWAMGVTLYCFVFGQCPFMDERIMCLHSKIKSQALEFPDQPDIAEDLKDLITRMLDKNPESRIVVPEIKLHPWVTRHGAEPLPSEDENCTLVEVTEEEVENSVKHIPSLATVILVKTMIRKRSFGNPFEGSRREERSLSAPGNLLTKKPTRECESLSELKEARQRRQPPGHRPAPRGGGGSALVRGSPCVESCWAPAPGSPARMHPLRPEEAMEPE

[8] = target: Serine/threonine-protein kinase 25 (Homo sapiens) (UniProt O00506)
Sequence of Serine/threonine-protein kinase 25 (Homo sapiens) (O00506 whole entry, looked up): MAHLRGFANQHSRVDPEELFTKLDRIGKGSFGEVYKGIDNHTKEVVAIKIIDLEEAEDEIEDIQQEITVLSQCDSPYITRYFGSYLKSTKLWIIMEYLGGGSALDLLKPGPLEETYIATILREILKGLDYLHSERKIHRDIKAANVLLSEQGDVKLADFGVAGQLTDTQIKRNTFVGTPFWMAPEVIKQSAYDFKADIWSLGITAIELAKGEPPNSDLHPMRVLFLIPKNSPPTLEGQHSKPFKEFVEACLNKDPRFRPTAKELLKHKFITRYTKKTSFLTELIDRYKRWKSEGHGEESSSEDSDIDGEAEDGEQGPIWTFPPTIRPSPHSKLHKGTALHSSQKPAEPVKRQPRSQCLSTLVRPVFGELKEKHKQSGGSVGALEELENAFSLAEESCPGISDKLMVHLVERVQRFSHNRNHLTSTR

[9] = target: Serine/threonine-protein kinase pim-1 (Homo sapiens) (UniProt P11309)
Sequence of Serine/threonine-protein kinase pim-1 (Homo sapiens) (P11309 whole entry, looked up): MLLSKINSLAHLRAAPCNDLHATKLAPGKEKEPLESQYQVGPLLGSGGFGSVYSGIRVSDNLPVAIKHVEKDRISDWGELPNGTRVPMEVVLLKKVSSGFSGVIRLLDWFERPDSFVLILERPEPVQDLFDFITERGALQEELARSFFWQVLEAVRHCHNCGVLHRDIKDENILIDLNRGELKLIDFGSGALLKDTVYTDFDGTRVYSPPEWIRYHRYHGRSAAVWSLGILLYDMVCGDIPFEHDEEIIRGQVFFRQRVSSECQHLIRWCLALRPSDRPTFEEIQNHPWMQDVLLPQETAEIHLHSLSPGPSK

[10] = target: Serine/threonine-protein kinase 16 (Homo sapiens) (UniProt O75716)
Sequence of Serine/threonine-protein kinase 16 (Homo sapiens) (O75716 whole entry): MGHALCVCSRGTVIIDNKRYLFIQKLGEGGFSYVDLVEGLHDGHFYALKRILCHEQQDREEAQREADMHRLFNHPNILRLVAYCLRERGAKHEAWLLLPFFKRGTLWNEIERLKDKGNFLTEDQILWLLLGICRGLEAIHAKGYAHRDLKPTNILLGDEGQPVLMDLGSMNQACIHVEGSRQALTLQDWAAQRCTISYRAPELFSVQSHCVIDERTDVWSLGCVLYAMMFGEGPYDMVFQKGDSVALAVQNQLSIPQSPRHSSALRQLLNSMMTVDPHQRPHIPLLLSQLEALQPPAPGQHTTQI

[11] = Inhibition of MEK
[12] = target: Cyclin-dependent kinase 1 (Homo sapiens, UniProt P06493); assay: Inhibition of p34cdc2
[13] = target: Mast/stem cell growth factor receptor Kit (Homo sapiens, UniProt P10721); assay: Inhibition of c-kit
[14] = target: Epidermal growth factor receptor (Homo sapiens, UniProt P00533)
[15] = target: Tyrosine-protein kinase SYK (Homo sapiens, UniProt P43405); assay: Inhibition of Syk
[16] = Inhibition of GSK3
[17] = target: T2, Serine/threonine-protein kinase Chk1 (Homo sapiens, UniProt O14757); assay: Inhibition of Chk1
T2 sequence (O14757 whole entry): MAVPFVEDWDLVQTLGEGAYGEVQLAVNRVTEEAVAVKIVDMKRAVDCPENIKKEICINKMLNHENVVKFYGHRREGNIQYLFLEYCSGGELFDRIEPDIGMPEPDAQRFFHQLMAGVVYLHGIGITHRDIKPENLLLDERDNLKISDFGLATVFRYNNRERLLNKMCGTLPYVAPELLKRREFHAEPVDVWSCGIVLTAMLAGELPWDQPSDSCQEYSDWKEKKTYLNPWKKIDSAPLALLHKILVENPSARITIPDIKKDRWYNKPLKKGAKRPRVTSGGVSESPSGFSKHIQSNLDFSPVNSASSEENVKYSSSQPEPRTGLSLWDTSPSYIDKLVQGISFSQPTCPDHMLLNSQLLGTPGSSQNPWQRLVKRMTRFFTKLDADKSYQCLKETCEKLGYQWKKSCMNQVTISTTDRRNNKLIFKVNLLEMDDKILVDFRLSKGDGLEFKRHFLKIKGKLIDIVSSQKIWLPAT

[18] = Inhibition of NS3-associated HCV viral helicase activity using RNA substrate; set-up: species or system Hepacivirus hominis
THP-1 [19] = assay: Inhibition of LPS-stimulated IL1 production in human THP1 cells; format: functional, cell-based
THP-1 [20] = assay: Inhibition of LPS-stimulated TNFalpha production in human THP1 cells; format: functional, cell-based
[21] = target: Mitogen-activated protein kinase 3 (Homo sapiens, UniProt P27361); assay: Inhibition of ERK1
[22] = target: Proto-oncogene tyrosine-protein kinase Src (Homo sapiens, UniProt P12931); assay: Inhibition of Src; conditions: read-out: IC50

Sequence of Serine/threonine-protein kinase 10 (Homo sapiens) (O94804 whole entry, looked up, canonical isoform): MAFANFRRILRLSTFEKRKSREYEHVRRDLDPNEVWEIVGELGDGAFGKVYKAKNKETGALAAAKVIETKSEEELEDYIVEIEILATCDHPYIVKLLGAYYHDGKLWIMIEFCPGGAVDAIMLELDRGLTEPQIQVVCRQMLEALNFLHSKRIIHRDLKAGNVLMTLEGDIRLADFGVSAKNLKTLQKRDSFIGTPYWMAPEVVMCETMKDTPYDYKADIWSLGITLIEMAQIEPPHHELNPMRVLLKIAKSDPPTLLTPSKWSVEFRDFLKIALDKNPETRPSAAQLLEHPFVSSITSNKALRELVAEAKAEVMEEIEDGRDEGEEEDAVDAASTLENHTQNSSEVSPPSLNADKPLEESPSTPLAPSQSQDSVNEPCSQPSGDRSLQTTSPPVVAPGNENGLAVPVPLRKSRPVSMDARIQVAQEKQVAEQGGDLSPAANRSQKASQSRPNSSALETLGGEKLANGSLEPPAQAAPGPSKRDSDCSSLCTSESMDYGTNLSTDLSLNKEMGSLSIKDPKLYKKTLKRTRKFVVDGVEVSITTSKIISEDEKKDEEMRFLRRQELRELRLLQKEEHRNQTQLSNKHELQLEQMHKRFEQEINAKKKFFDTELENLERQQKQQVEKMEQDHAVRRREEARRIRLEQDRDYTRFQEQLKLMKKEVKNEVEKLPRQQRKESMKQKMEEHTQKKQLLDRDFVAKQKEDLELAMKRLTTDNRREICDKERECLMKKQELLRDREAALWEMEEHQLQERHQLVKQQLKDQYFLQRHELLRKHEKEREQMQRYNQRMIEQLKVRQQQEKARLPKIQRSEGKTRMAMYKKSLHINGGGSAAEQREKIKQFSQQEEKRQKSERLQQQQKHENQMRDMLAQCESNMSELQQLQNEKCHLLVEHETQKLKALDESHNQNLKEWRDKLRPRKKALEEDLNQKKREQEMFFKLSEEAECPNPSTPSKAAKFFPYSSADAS
Sequence of Calcium/calmodulin-dependent protein kinase type 1G (Homo sapiens) (Q96NX5 whole entry): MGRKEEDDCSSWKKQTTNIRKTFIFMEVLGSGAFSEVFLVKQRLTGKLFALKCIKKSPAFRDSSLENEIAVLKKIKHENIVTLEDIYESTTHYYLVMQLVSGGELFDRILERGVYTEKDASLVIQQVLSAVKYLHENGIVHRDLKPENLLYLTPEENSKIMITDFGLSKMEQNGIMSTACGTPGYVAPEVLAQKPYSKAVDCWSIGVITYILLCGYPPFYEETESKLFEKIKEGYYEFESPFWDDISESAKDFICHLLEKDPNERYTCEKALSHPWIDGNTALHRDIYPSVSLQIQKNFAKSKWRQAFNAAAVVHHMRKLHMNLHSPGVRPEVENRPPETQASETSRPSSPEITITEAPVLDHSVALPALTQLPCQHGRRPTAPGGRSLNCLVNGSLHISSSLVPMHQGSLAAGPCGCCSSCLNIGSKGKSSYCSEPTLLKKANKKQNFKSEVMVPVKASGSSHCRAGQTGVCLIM

Molecule `C=CNC#N` has a ΔTm [1] of 0.4 °C, a ΔTm [2] of -0.3 °C and a ΔTm [3] of 0.7 °C. It also gave a ΔTm [4] of 0.1 °C, a ΔTm [5] of 0.2 °C and a ΔTm [6] of 1.9 °C. The ΔTm [7] was 0.9 °C, the ΔTm [8] was 0.4 °C and the ΔTm [9] was 0.1 °C. The ΔTm [10] was 0 °C and the pIC50 [11] was 7.92.

With `O=C1NC(=O)c2c1c1c3ccccc3n3c1c1c2c2ccccc2n1C1CCC3O1` the ΔTm [1] was -0.2 °C, the ΔTm [2] was -0.5 °C and the ΔTm [3] was 0.2 °C. It also gave a ΔTm [4] of 7.6 °C, a ΔTm [5] of 0.5 °C and a pIC50 [12] of 6.60. It also gave a ΔTm [6] of 4.7 °C, a ΔTm [7] of -0.3 °C and a ΔTm [8] of 2.1 °C. It also gave a ΔTm [9] of 6.2 °C and a ΔTm [10] of 1.7 °C.

Work on `CCCNC(=O)Nc1ccc(Oc2ncnc3cc(OC)c(OC)cc23)cc1Cl` [KRN-633] yielded a ΔTm [1] of 1 °C, a ΔTm [2] of 0.4 °C and a ΔTm [3] of 0.8 °C. The ΔTm [4] was 0.2 °C, the ΔTm [5] was 0.1 °C and the ΔTm [6] was 0.5 °C. It also gave a pIC50 [13] of 5.36, a ΔTm [7] of 0.7 °C and a ΔTm [9] of 0.5 °C. It also gave a ΔTm [10] of 0.2 °C.

For `CCN(CC)CCNC(=O)c1c(C)[nH]c(/C=C2\C(=O)Nc3ccc(Cl)cc32)c1C` [SU-11652], the ΔTm [1] was 5.7 °C, the ΔTm [2] was 8.1 °C and the ΔTm [3] was 4.3 °C. For the same molecule, the ΔTm [4] was 8.3 °C, the ΔTm [5] was 2.2 °C and the ΔTm [6] was 10.2 °C. For the same molecule, the pIC50 [13] was 8.00, the pIC50 [14] was less than 4.70 and the ΔTm [7] was 7.9 °C. It also gave a ΔTm [8] of 7.4 °C, a ΔTm [9] of 2.9 °C and a ΔTm [10] of 6 °C.

In the case of `O=C(Nc1cccc(Nc2nccc(Nc3cccc(C(F)(F)F)c3)n2)c1)C1CC1` [ANILINOPYRIMIDINE1], the ΔTm [1] was 3.8 °C, the ΔTm [2] was 1 °C and the ΔTm [3] was 0.7 °C. The ΔTm [4] was 0.2 °C, the ΔTm [5] was 0.6 °C and the ΔTm [6] was 0.9 °C. For the same molecule, the ΔTm [7] was 2 °C, the pIC50 [15] was 6.05 and the ΔTm [9] was 7.3 °C. The ΔTm [10] was 2.3 °C.

Molecule `CCCCc1c(-c2ccc(O)cc2)[nH]c2nccnc12` [ALOISINE A] has a ΔTm [1] of 0.6 °C, a ΔTm [2] of 5 °C and a ΔTm [3] of 3 °C. For the same molecule, the ΔTm [4] was 0 °C, the ΔTm [5] was 1.5 °C and the ΔTm [6] was -0.2 °C. It also gave a pIC50 [16] of 6.30, a ΔTm [7] of 1.8 °C and a ΔTm [9] of 1.7 °C. It also gave a ΔTm [10] of 2.6 °C.

In the case of `NC1=N/C(=C2/CCNC(=O)c3[nH]ccc32)C(=O)N1` [DEBROMOHYMENIALDISINE], the ΔTm [1] was 0.2 °C, the ΔTm [2] was 1.7 °C and the ΔTm [3] was 3.6 °C. The pIC50 [17] was 5.52, the ΔTm [4] was 1.6 °C and the ΔTm [5] was 4.5 °C. For the same molecule, the ΔTm [6] was 2.6 °C, the ΔTm [7] was 1.4 °C and the ΔTm [8] was 1.7 °C. It also gave a ΔTm [9] of 0.7 °C and a ΔTm [10] of 0.4 °C.

Work on `Cc1cc(Nc2nc(-c3ccccc3)nc3ccccc23)n[nH]1` yielded a ΔTm [1] of 3.7 °C, a ΔTm [2] of 11.1 °C and a ΔTm [3] of 3.3 °C. It also gave a ΔTm [4] of -1 °C, a ΔTm [5] of 3.5 °C and a ΔTm [6] of 7.4 °C. For the same molecule, the pKi [16] was 7.62, the ΔTm [7] was 2 °C and the ΔTm [9] was 1.7 °C. The ΔTm [10] was 5.6 °C.

In the case of `COc1cc(OC)c(/C=C2\C(=O)Nc3ccccc32)c(OC)c1`, the ΔTm [1] was 0 °C, the ΔTm [2] was 0.8 °C and the ΔTm [3] was 0.5 °C. It also gave a ΔTm [4] of 0.8 °C, a ΔTm [5] of 0 °C and a pIC50 [12] of less than 4.00. For the same molecule, the ΔTm [6] was -0.1 °C, the ΔTm [7] was 0.4 °C and the ΔTm [8] was 0.1 °C. It also gave a ΔTm [9] of -1 °C and a ΔTm [10] of 0.2 °C.

With `Brc1c(Br)c(Br)c2[nH]nnc2c1Br` [TETRABROMOBENZOTRIAZOLE] the ΔTm [1] was -0.7 °C, the ΔTm [2] was 0 °C and the pIC50 [18] was 4.22. For the same molecule, the ΔTm [3] was -0.4 °C, the ΔTm [4] was -0.8 °C and the ΔTm [5] was 2 °C. It also gave a ΔTm [6] of 3.3 °C, a ΔTm [7] of -0.5 °C and a ΔTm [8] of 0.7 °C. The ΔTm [9] was 3.7 °C and the ΔTm [10] was 1.1 °C.

`O=C1Nc2ccccc2/C1=C\c1ccc[nH]1` showed a ΔTm [1] of 1.9 °C, a ΔTm [2] of 5.3 °C and a ΔTm [3] of 1.4 °C. The ΔTm [4] was 6.2 °C, the ΔTm [5] was 0.5 °C and the ΔTm [6] was 7.7 °C. The ΔTm [7] was 4.7 °C, the pIC50 [15] was 7.85 and the ΔTm [9] was 0.1 °C. It also gave a ΔTm [10] of 4.3 °C.

With `COc1nccc(-c2c(-c3ccc(F)cc3)ncn2[C@H]2CC[C@H](O)CC2)n1` the ΔTm [1] was 0.2 °C, the pIC50 (THP-1 [19]) was 6.92 and the ΔTm [2] was 1.9 °C. The ΔTm [3] was 0.9 °C, the ΔTm [4] was -0.5 °C and the ΔTm [5] was 0.1 °C. It also gave a ΔTm [6] of 6.1 °C, a ΔTm [7] of -0.6 °C and a ΔTm [9] of -0.5 °C. It also gave a ΔTm [10] of -0.2 °C and a pIC50 (THP-1 [20]) of 6.92.

`C[S+]([O-])c1ccc(-c2nc(-c3ccc(F)cc3)c(-c3ccncc3)[nH]2)cc1` (stereo not drawn) [SB-203580] showed a ΔTm [1] of -0.2 °C, a pIC50 (THP-1 [19]) of 7.30 and a ΔTm [2] of 2.7 °C. It also gave a ΔTm [3] of 0.8 °C, a ΔTm [4] of 2 °C and a ΔTm [5] of -0.1 °C. It also gave a ΔTm [6] of 1 °C, a ΔTm [7] of 0 °C and a ΔTm [8] of 0.9 °C. It also gave a ΔTm [9] of -2.1 °C, a ΔTm [10] of 0.4 °C and a pIC50 (THP-1 [20]) of 7.30.

`CN1CCc2[nH]c(=S)c(C#N)c(-c3cccs3)c2C1` showed a ΔTm [1] of 2.5 °C, a ΔTm [2] of 7.2 °C and a ΔTm [3] of 0.8 °C. The pIC50 [17] was 5.85, the ΔTm [5] was -0.2 °C and the ΔTm [7] was 3.8 °C. The ΔTm [9] was 1.4 °C and the ΔTm [10] was 0.5 °C.

For `O=C1NC(=O)c2c1c1c3ccccc3[nH]c1n1cncc21` [ISOGRANULATIMIDE], the ΔTm [1] was 3.4 °C, the ΔTm [2] was 5.4 °C and the ΔTm [3] was 4.3 °C. For the same molecule, the pIC50 [17] was 7.00, the ΔTm [4] was 0 °C and the ΔTm [5] was 2.3 °C. The ΔTm [6] was 2.5 °C, the ΔTm [7] was 0.5 °C and the ΔTm [9] was 9 °C. It also gave a ΔTm [10] of 7.4 °C.

`N#C/C(=C(/N)Sc1ccc(N)cc1)c1ccccc1C(F)(F)F` showed a ΔTm [1] of 0.2 °C, a pIC50 [21] of less than 5.00 and a ΔTm [2] of 0.4 °C. It also gave a pIC50 [18] of 6.74, a ΔTm [3] of 0.5 °C and a ΔTm [4] of -0.1 °C. It also gave a ΔTm [5] of 0 °C, a ΔTm [6] of 0.8 °C and a ΔTm [7] of -0.2 °C. It also gave a ΔTm [8] of 0 °C, a ΔTm [9] of -0.2 °C and a ΔTm [10] of 0.2 °C.

`c1ccc(-c2n[nH]c3c2oc2ccccc23)cc1` gave a ΔTm [1] of 0.3 °C, a pIC50 [21] of no more than 5.00 and a ΔTm [2] of 1.9 °C. The ΔTm [3] was 0.8 °C, the ΔTm [4] was 0.4 °C and the ΔTm [5] was 0 °C. The ΔTm [6] was 4.3 °C, the pIC50 [13] was 6.52 and the ΔTm [7] was 2.5 °C. It also gave a pIC50 [22] of no more than 5.00, a ΔTm [9] of -0.5 °C and a ΔTm [10] of 6.8 °C. The pIC50 [11] was no more than 5.00.
